Reference: PubChem BioAssay (NCI)
“And” between values parts separate entries of the source, which are not always exact repeats. Equal entries are not always repeated.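 In this assay, cells in 96-well plates receive the compound at five concentrations for 48 hours. Endpoints are linearly interpolated between the surrounding concentrations. GI50: concentration for 50% inhibition of growth. The concentration for full growth arrest is given as TGI.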

What was measured:
Assay in all cases: growth of human tumour cells (NCI), 48 h
[1] = tested on: SF-268 CNS
[2] = tested on: SNB-75 CNS
[3] = tested on: SN12C renal
[4] = tested on: HOP-62 NSCLC
[5] = tested on: SNB-19 CNS
[6] = tested on: COLO 205 colon
[7] = tested on: MALME-3M melanoma
[8] = tested on: A549 NSCLC
[9] = tested on: UO-31 renal
[10] = tested on: UACC-62 melanoma

| Structure (SMILES) | GI50 [1] [µM] | TGI [1] [µM] | GI50 [2] | TGI [2] | GI50 [3] [µM] | TGI [3] [µM] | GI50 [4] | TGI [4] | GI50 [5] [µM] | TGI [5] [µM] | GI50 [6] [µM] | TGI [6] [µM] | GI50 [7] [µM] | TGI [7] [µM] | GI50 [8] | TGI [8] [µM] | GI50 [9] [µM] | TGI [9] [µM] | GI50 [10] [µM] | TGI [10] [µM] |
| --- | --- | --- | --- | --- | --- | --- | --- | --- | --- | --- | --- | --- | --- | --- | --- | --- | --- | --- | --- | --- |
| CC(=O)N1CCN(CCOc2ccc(C3CCN(C4=Nn5c(nnc5C(F)(F)F)CC4)CC3)cc2)CC1 | 77.9 | > 100 | 3.12 µM | > 100 µM | 14.5 | > 100 | 11.5 µM | > 100 µM | 22.4 | > 100 | 11.5 | > 70.6 | 9.89 | 99.6 | 41.4 µM | > 100 | 4.75 | > 100 | 2.84 | > 100 |
| Cc1cc(O)cc2c1c(=O)c1ccccc1n2C |  | 84.4 |  | > 100 µM |  | > 100 |  |  |  | > 100 |  | > 100 |  |  |  | > 100 |  | > 100 |  | > 100 |
| N#Cc1c2c(c(-c3cccs3)n(C3OC(CO)C(O)C(O)C3O)c1=S)CCc1ccccc1-2 (stereo unspecified) | > 100 | > 100 | 3.49 µM and 1.55 µM | > 29.3 µM and 12.7 µM |  | > 100 | 14.9 µM and 38.5 µM | > 100 µM |  | > 100 |  | > 100 |  | > 100 | 20.9 µM and > 85.1 µM | > 100 |  | > 100 |  | > 100 |
| COc1cc(C2c3cc4c(cc3[C@@H](Nc3ccc(N)cc3)C3COC(=O)[C@H]23)OCO4)cc(OC)c1O (stereo partly specified) | 0.89 | 19.3 | 0.347 µM |  | 0.492 | 6.15 |  | 0.865 µM and 2.5 µM | 0.555 | 17.3 | 0.996 | 47.7 | 0.849 | 19.7 | 0.317 µM | 3.46 | 0.727 | 4.79 | 0.711 | 11.3 |
| Cc1nnc(-c2ccc(-c3nc4ccccc4o3)cc2)o1 | 28.6 | 92.2 |  |  | > 100 | > 100 | 42.8 µM | > 100 µM | 20.7 | 43.1 | 76.8 | > 100 |  |  | 26.1 µM | > 100 | > 100 | > 100 | 36.8 | > 100 |
| C#CCN(Cc1nc2cc(C(F)(F)F)ccc2nc1-c1ccccc1)c1ccc(F)c(F)c1 | 22.1 | > 100 | > 100 µM | > 100 µM | 46.2 | > 100 | > 100 µM | > 100 µM | 92.5 | > 100 | 29.4 | > 100 |  |  | 19.8 µM | 82.1 | 36.1 | > 100 | 44.5 | > 100 |
| CCOC(=O)/C(C#N)=C/Nc1ccc(-c2nc3ccccc3[nH]2)cc1 | 19.2 | 47.4 | 24.2 µM | 56.7 µM | 19.5 | 55.6 | 31.1 µM | 74.7 µM | 36.5 | > 100 | 28.8 | > 100 |  |  | 52.7 µM | > 100 | 21.1 | > 100 | 18.7 | 62.4 |
| COc1ccc2c(c1)OCCC1=C2SCC2(C)CCN=C12 (stereo unspecified) |  | > 100 |  | > 100 µM |  | > 100 |  | > 100 µM |  | > 100 |  | > 100 |  |  |  | > 100 |  |  |  | > 100 |
| CC(=O)O[C@H]1C=CC23OC(=O)[C@]1(C)[C@H]2[C@H](C(=O)O)C12CC(=O)[C@@](CO)(CC[C@H]13)C2 |  | > 100 |  |  |  | > 100 |  | > 100 µM |  | > 100 |  | > 100 |  |  |  | > 100 |  | > 100 |  | > 100 |
| NS(=O)(=O)c1ccc(NC(=O)Nc2ccccc2F)cc1 |  | > 100 |  | > 100 µM |  | > 100 |  | > 100 µM |  | > 100 |  | > 100 |  | > 100 |  | > 100 |  | > 100 |  | > 100 |
| Nc1c(C(=O)Nc2cccc(Br)c2)sc2nc3c(cc12)C(O)CCC3 (stereo unspecified) | 0.682 | > 57.6 | 0.359 µM | 17.5 µM | 0.636 | > 100 | 0.575 µM | 48.3 µM | 2.52 | 53.9 | 0.41 | > 32 | 0.522 | > 87.1 | 0.494 µM | 22 | 0.685 | 40.3 | 0.41 | > 94.9 |
| Cc1sc2ncn(Cc3ccc(Cl)c(Cl)c3)c(=O)c2c1C | 25.5 | > 100 | 29.3 µM | > 100 µM | 20.5 | > 100 | 14 µM | 36.7 µM | 38 | > 100 | 63.2 | > 100 |  |  | 31.3 µM | > 100 | 31.4 | > 100 | 13.2 | > 100 |
| c1ccc2nc(OCCN3CC3)ccc2c1 | 16 | 35.5 | 16.9 µM | 35.2 µM | 11.8 | 29.5 | 15.2 µM | 34.1 µM | 15.7 | 43.6 | 1.98 | 5 | 16.6 | 43.6 | 14.4 µM | 30.7 | 6.39 | 25 | 13 | 34.1 |
| Nc1ccc(C(=O)N/C(=C\c2cccc([N+](=O)[O-])c2)c2nc3c4c(ccc3[nH]2)C(=O)c2ccccc2C4=O)cc1 |  | > 100 |  | 17.8 µM |  | > 100 |  | > 100 µM |  | > 100 |  | > 100 |  | > 100 |  | > 100 |  | 7.64 |  | > 100 |
| COc1cccc(C2=C(c3cn(C)c4cccc(OC)c34)C(=O)NC2=O)c1 | 16.4 | > 25 | 4.94 µM | 24.5 µM | 15.1 | > 25 | 18.8 µM | > 25 µM | > 25 | > 25 | 6.48 | > 20.3 | > 16.6 | > 25 | 11.2 µM | > 25 | 17.9 | > 25 | 7.17 | > 25 |
